Laboratory results taken from patent publication US4882349A, “Pyrrolacetic amides having antiinflammatory activity” (priority 1982, dated 1989).
Like-named read-outs stand apart in the source and are kept apart here.

Assays:
[1] = system: gastric lesions; format: in vivo, male Wistar rats; conditions: 4 consecutive days; for gastric damage index: I=mean no. of lesions+mean of severity+% incidence/10; for mean severity: scale 0 (no lesion) to 5 (perforations)
Procedure: Male Wistar rats weighing 180 g were randomized into groups of 10. Three doses of each compound were administered. One group received the vehicle alone (10 ml/kg b.w.). Each dose was given orally for four days consecutively and the rats were sacrificed on the fifth day for necropsy. The ulcerogenic effect was evaluated by the following scale:
(1) each haemorrhagic point at least 1 mm in diameter was scored as 1 lesion,
(2) haemorrhagic points less than 1 mm in diameter were scored in the following manner:
(c) 20 to 29=three lesions
By means of this scale it was possible to obtain the gastric damage index:
I=mean no. of lesions+mean of severity+% incidence/10

[2] = solubility; format: physicochemical
[3] = system: brewers' yeast-induced hyperthermia; assay: antipyretic activity, brewers' yeast-induced hyperthermia; format: in vivo, albino male Wistar rats
Procedure: The animals were caged under the same conditions as those described in the preceding tests. Five hours following […], determined by a rectal probe connected to a YSI thermometer (73 ATP model, Yellow Springs Instrument Company) were selected for the experiment. The animals were then randomized into groups of 10 and the compounds under examination and the vehicle were administered via the oral and parenteral routes testing each dose in two groups. Body temperature was determined at one, two and three hours after administration of the substances. […]

[4] = system: phenyl-p-quinone-induced writhing (abdominal contractions); assay: phenylquinone-induced writhing test, oral administration 1-24 h before phenyl-quinone (duration of analgesia); format: in vivo, male Wistar rats
Procedure: Male Wistar rats weighing 110±5 g were caged for 10 days at 22±1° C. and given a balanced diet with free access to water. Twenty-four hours before the experiment the animals were randomized into groups of 10 and fasted for 14 hours but with free access to water. Each dose was tested in 3 groups of rats. […] alone (0.5% carboxymethyl-cellulose in physiological saline) in the control animals, each rat was given 2 ml of a 5% absolute ethanol aqueous solution containing 0.36% of phenyl-p-quinone (Sigma Chemical Company) in order to provoke writhings. Fifteen minutes after administration of phenyl-p-quinone the number of contractions were counted for 20 minutes. The inhibiting effect of the compounds under examination on the abdominal contractions induced by phenyl-p-quinone was calculated by the following formula: % protection= [formula]

Cc1ccc(C(=O)c2ccc(CC(=O)NCC(=O)O)n2C)cc1 [Compound 1-c, 1-methyl-5-p-toluoylpyrrole-2-acetamidoacetic acid]
% incidence/10 (head is drawing 38) ([1]; 50 mg/Kg orally): 7
mean no. of lesions ([1]; 50 mg/Kg orally): 1
gastric damage index ([1]; 50 mg/Kg orally): 9.5
mean severity ([1]; 50 mg/Kg orally): 1.5
% incidence/10 (head is drawing 38) ([1]; 100 mg/Kg orally): 8
mean no. of lesions ([1]; 100 mg/Kg orally): 2
gastric damage index ([1]; 100 mg/Kg orally): 12
mean severity ([1]; 100 mg/Kg orally): 2
% incidence/10 (head is drawing 38) ([1]; 200 mg/Kg orally): 9
mean no. of lesions ([1]; 200 mg/Kg orally): 2.5
gastric damage index ([1]; 200 mg/Kg orally): 13.5
mean severity ([1]; 200 mg/Kg orally): 2
Solubility [2]: soluble in alkali
% Temperature decrease ([3]; 50 mg/Kg i.p., 1 h): 20.0%
% Temperature decrease ([3]; 50 mg/Kg i.p., 2 h): 21.9%
% Temperature decrease ([3]; 50 mg/Kg i.p., 3 h): 36.0%
% Temperature decrease ([3]; 50 mg/Kg per os, 1 h): 15.0%
% Temperature decrease ([3]; 50 mg/Kg per os, 2 h): 23.0%
% Temperature decrease ([3]; 50 mg/Kg per os, 3 h): 32.0%
% Temperature decrease ([3]; 75 mg/Kg i.p., 1 h): 19.0%
% Temperature decrease ([3]; 75 mg/Kg i.p., 2 h): 32.6%
% Temperature decrease ([3]; 75 mg/Kg i.p., 3 h): 45.2%
% Temperature decrease ([3]; 75 mg/Kg per os, 1 h): 16.5%
% Temperature decrease ([3]; 75 mg/Kg per os, 2 h): 30.7%
% Temperature decrease ([3]; 75 mg/Kg per os, 3 h): 42.1%
% Temperature decrease ([3]; 100 mg/Kg i.p., 1 h): 35.0%
% Temperature decrease ([3]; 100 mg/Kg i.p., 2 h): 49.1%
% Temperature decrease ([3]; 100 mg/Kg i.p., 3 h): 65.7%
% Temperature decrease ([3]; 100 mg/Kg per os, 1 h): 27.1%
% Temperature decrease ([3]; 100 mg/Kg per os, 2 h): 31.2%
% Temperature decrease ([3]; 100 mg/Kg per os, 3 h): 57.9%

COc1ccccc1OC(=O)CNC(=O)Cc1ccc(C(=O)c2ccc(C)cc2)n1C [Compound 1-d, 1-methyl-5-p-toluoylpyrrole-2-acetamidoacetic acid guaiacyl ester]
% incidence/10 (head is drawing 38) ([1]; 50 mg/Kg orally): 6
mean no. of lesions ([1]; 50 mg/Kg orally): 1.5
gastric damage index ([1]; 50 mg/Kg orally): 8.5
mean severity ([1]; 50 mg/Kg orally): 1
% incidence/10 (head is drawing 38) ([1]; 100 mg/Kg orally): 9
mean no. of lesions ([1]; 100 mg/Kg orally): 2
gastric damage index ([1]; 100 mg/Kg orally): 12.5
mean severity ([1]; 100 mg/Kg orally): 1.5
% incidence/10 (head is drawing 38) ([1]; 200 mg/Kg orally): 9
mean no. of lesions ([1]; 200 mg/Kg orally): 2
gastric damage index ([1]; 200 mg/Kg orally): 13
mean severity ([1]; 200 mg/Kg orally): 2
% Protection ([4]; 10 mg/Kg oral, 1 h before phenyl-quinone): 55.7%
% Protection ([4]; 10 mg/Kg oral, 2 h before phenyl-quinone): 43.3%
% Protection ([4]; 10 mg/Kg oral, 4 h before phenyl-quinone): 40.1%
% Protection ([4]; 10 mg/Kg oral, 6 h before phenyl-quinone): 44.0%
% Protection ([4]; 10 mg/Kg oral, 8 h before phenyl-quinone): 32.0%
% Protection ([4]; 10 mg/Kg oral, 16 h before phenyl-quinone): 12.1%
% Protection ([4]; 10 mg/Kg oral, 24 h before phenyl-quinone): 10.0%
% Protection ([4]; 20 mg/Kg oral, 1 h before phenyl-quinone): 78.1%
% Protection ([4]; 20 mg/Kg oral, 2 h before phenyl-quinone): 80.6%
% Protection ([4]; 20 mg/Kg oral, 4 h before phenyl-quinone): 70.5%
% Protection ([4]; 20 mg/Kg oral, 6 h before phenyl-quinone): 66.3%
% Protection ([4]; 20 mg/Kg oral, 8 h before phenyl-quinone): 71.0%
% Protection ([4]; 20 mg/Kg oral, 16 h before phenyl-quinone): 23.6%
% Protection ([4]; 20 mg/Kg oral, 24 h before phenyl-quinone): 25.0%
% Protection ([4]; 50 mg/Kg oral, 1 h before phenyl-quinone): 86.4%
% Protection ([4]; 50 mg/Kg oral, 2 h before phenyl-quinone): 87.0%
% Protection ([4]; 50 mg/Kg oral, 4 h before phenyl-quinone): 81.5%
% Protection ([4]; 50 mg/Kg oral, 6 h before phenyl-quinone): 76.8%
% Protection ([4]; 50 mg/Kg oral, 8 h before phenyl-quinone): 75.0%
% Protection ([4]; 50 mg/Kg oral, 16 h before phenyl-quinone): 60.7%
% Protection ([4]; 50 mg/Kg oral, 24 h before phenyl-quinone): 64.0%
Solubility [2]: soluble in the common organic solvents
% Temperature decrease ([3]; 50 mg/Kg i.p., 1 h): 16.0%
% Temperature decrease ([3]; 50 mg/Kg i.p., 2 h): 23.0%
% Temperature decrease ([3]; 50 mg/Kg i.p., 3 h): 37.5%
% Temperature decrease ([3]; 50 mg/Kg per os, 1 h): 14.0%
% Temperature decrease ([3]; 50 mg/Kg per os, 2 h): 22.0%
% Temperature decrease ([3]; 50 mg/Kg per os, 3 h): 31.6%
% Temperature decrease ([3]; 75 mg/Kg i.p., 1 h): 22.1%
% Temperature decrease ([3]; 75 mg/Kg i.p., 2 h): 33.4%
% Temperature decrease ([3]; 75 mg/Kg i.p., 3 h): 39.8%
% Temperature decrease ([3]; 75 mg/Kg per os, 1 h): 18.5%
% Temperature decrease ([3]; 75 mg/Kg per os, 2 h): 23.4%
% Temperature decrease ([3]; 75 mg/Kg per os, 3 h): 29.1%
% Temperature decrease ([3]; 100 mg/Kg i.p., 1 h): 28.1%
% Temperature decrease ([3]; 100 mg/Kg i.p., 2 h): 37.2%
% Temperature decrease ([3]; 100 mg/Kg i.p., 3 h): 60.4%
% Temperature decrease ([3]; 100 mg/Kg per os, 1 h): 22.0%
% Temperature decrease ([3]; 100 mg/Kg per os, 2 h): 42.5%
% Temperature decrease ([3]; 100 mg/Kg per os, 3 h): 59.0%
